Data reported in patent US11072588B2, “Barbituric acid derivatives comprising cationic and lipophilic groups” (UNIVERSITETET I TROMSØ—NORGES ARKTISKE UNIVERSITET, priority 2017, dated 2021).
≈ marks a conversion by molar mass, not a printed value. Read-outs that look alike come from different tables or passages of the source.

Experiments:
[1] = tested on: Corynebacterium glutamicum ATCC 13032; experiment: MIC assay, antibiotic susceptible reference strain; assay type: cell-based; settings: Corynebacterium glutamicum, ATCC13032, read-out: Antimicrobial activity (MIC) C. g
Procedure: (§1) Working solutions of the test derivatives were prepared with up to 100% DMSO and stored at −20° C. If necessary, the solutions were heated to 40-80° C. before testing to facilitate complete dissolution. Double-distilled water was used in all dilutions prepared. […] A microdilution susceptibility test was used for MIC determination according to Clinical and Laboratory Standards Institute, “Methods for Dilution Antimicrobial Sisceptibility Tests for Bacteria That Graw Aerobically”, Approved Standard M07-A9, edition 2012, with modifications as described by Igumnova et al (Bioorg Med Chem, 2016, 24 (22), 5884-5894).
(§2) Briefly, the bacterial inoculum was adjusted to approximately 2.5-3×10^4 cells/mL in Mueller-Hinton broth (MHB, Difco Laboratories, USA), and incubated in a ratio of 1:1 with test derivatives in polystyrene 96-well flat-bottom microplates (NUNC, Roskilde, Denmark). Positive growth control (without test derivatives) and negative control (without bacteria) were included. The reference antibiotic was oxytetracycline hydrochloride (Sigma Aldrich, Saint Louis, Mo., USA). The microplates were incubated in an EnVision microplate reader (Perkin-Elmer, Turku, Finland) placed in an incubator set to 35° C. for 48 h. The MIC value was defined as the lowest concentration of derivative resulting in no bacterial growth as determined by OD600 measurement. All derivatives were tested in three parallels.

[2] = tested on: Escherichia coli ATCC 25922; experiment: MIC assay, antibiotic susceptible reference strain; assay type: cell-based; settings: Escherichia coli, ATCC25922, read-out: Antimicrobial activity (MIC) E. c
Procedure: as §1, §2

[3] = tested on: Pseudomonas aeruginosa PA01, DSM 19880 (ATCC 15692); experiment: MIC assay, antibiotic susceptible reference strain; assay type: cell-based; settings: Pseudomonas aeruginosa, read-out: Antimicrobial activity (MIC) P. a
Procedure: as §1, §2

[4] = tested on: Staphylococcus aureus ATCC 9144; experiment: MIC assay, antibiotic susceptible reference strain; assay type: cell-based; settings: Staphylococcus aureus, ATCC9144, read-out: Antimicrobial activity (MIC) S. a
Procedure: as §1, §2

[5] = tested on: S. aureus IHT 99040; experiment: MIC, multi-resistant clinical isolate; assay type: cell-based, Staphylococcus aureus
Procedure: as §1, §2
(§3) The MIC was determined as explained above with some exceptions; working solutions of test derivatives were prepared from concentrated DMSO stocks stored at room temperature, the density of the bacterial inoculum was increased 40× to 1-1.2×10^6 cells/mL, enterococci were incubated in Brain Heart Infusion broth (BHIB, Difco Laboratories, USA), the microplates were incubated for 24 h, and the derivatives were tested in four parallels.

[6] = tested on: S. aureus N315; experiment: MIC, multi-resistant clinical isolate; assay type: cell-based, Staphylococcus aureus
Procedure: as §1, §2, §3

[7] = tested on: S. aureus NCTC 10442; experiment: MIC, multi-resistant clinical isolate; assay type: cell-based, Staphylococcus aureus
Procedure: as §1, §2, §3

[8] = tested on: S. aureus strain 85/2082; experiment: MIC, multi-resistant clinical isolate; assay type: cell-based, Staphylococcus aureus
Procedure: as §1, §2, §3

[9] = tested on: S. aureus strain WIS; experiment: MIC, multi-resistant clinical isolate; assay type: cell-based, Staphylococcus aureus
Procedure: as §1, §2, §3

[10] = tested on: E. faecium 50673722; experiment: MIC, multi-resistant clinical isolate; assay type: cell-based, Enterococcus faecium
Procedure: as §1, §2, §3

[11] = tested on: E. faecium 50758899; experiment: MIC, multi-resistant clinical isolate; assay type: cell-based, Enterococcus faecium
Procedure: as §1, §2, §3

[12] = tested on: E. faecium 50901530; experiment: MIC, multi-resistant clinical isolate; assay type: cell-based, Enterococcus faecium
Procedure: as §1, §2, §3

[13] = tested on: E. faecium K36-18; experiment: MIC, multi-resistant clinical isolate; assay type: cell-based, Enterococcus faecium
Procedure: as §1, §2, §3

[14] = tested on: E. faecium TUH50-22; experiment: MIC, multi-resistant clinical isolate; assay type: cell-based, Enterococcus faecium
Procedure: as §1, §2, §3

[15] = tested on: E. coli 50579417; experiment: MIC, multi-resistant clinical isolate; assay type: cell-based, Escherichia coli
Procedure: as §1, §2, §3

[16] = tested on: E. coli 50639799; experiment: MIC, multi-resistant clinical isolate; assay type: cell-based, Escherichia coli
Procedure: as §1, §2, §3

[17] = tested on: E. coli 50676002; experiment: MIC, multi-resistant clinical isolate; assay type: cell-based, Escherichia coli; settings: E. coli 50676002
Procedure: as §1, §2, §3

[18] = tested on: E. coli 50739822; experiment: MIC, multi-resistant clinical isolate; assay type: cell-based, Escherichia coli
Procedure: as §1, §2, §3

[19] = tested on: E. coli 50857972; experiment: MIC, multi-resistant clinical isolate; assay type: cell-based, Escherichia coli
Procedure: as §1, §2, §3

[20] = tested on: P. aeruginosa 50692520; experiment: MIC, multi-resistant clinical isolate; assay type: cell-based, Pseudomonas aeruginosa
Procedure: as §1, §2, §3

[21] = tested on: P. aeruginosa K34-73; experiment: MIC, multi-resistant clinical isolate; assay type: cell-based, Pseudomonas aeruginosa; settings: P. aeruginosa K34-73
Procedure: as §1, §2, §3

[22] = tested on: P. aeruginosa K44-24; experiment: MIC, multi-resistant clinical isolate; assay type: cell-based, Pseudomonas aeruginosa
Procedure: as §1, §2, §3

[23] = tested on: S. epidermidis; experiment: Anti-biofilm activity (inhibition of biofilm formation); assay type: cell-based; settings: Staphylococcus epidermidis, read-out: Anti-biofilm IC50
[24] = tested on: panel of 30 multi-resistant clinical isolates of Gram-positive and Gram-negative bacteria; experiment: MIC screening, ranges over the panel of clinical isolates; assay type: cell-based
Procedure: as §1, §2, §3

[25] = Enterococcus faecium, read-out: Antimicrobial activity (MIC)
[26] = Escherichia coli, read-out: Antimicrobial activity (MIC)

Compound `CC(C)(C)c1ccc(CC2(Cc3ccc(C(C)(C)C)cc3)C(=O)N(CCCCNC(=N)N)C(=O)N(CCCCNC(=N)N)C2=O)cc1` [Compound 8(i), 1,1′-(4,4′-(5,5-bis(4-tert-butylbenzyl)-2,4,6-trioxodihydropyrimidine-1,3(2H,4H)-diyl)bis(butane-4,1-diyl))diguanidine] has an MIC [1] of under 0.13 µg/mL, an MIC [2] of 2 µg/mL (≈ 3.09 µM) and an MIC [3] of 4 µg/mL (≈ 6.18 µM). For the same compound, the MIC [4] was 1 µg/mL (≈ 1.55 µM), the “selectivity index (EC50/MIC)” value ([5]; RBC EC50 / MIC) was “(39)” and the MIC ([5]; Staphylococcus aureus, IHT99040, read-out: Antimicrobial activity (MIC)) was 2 µg/mL (≈ 3.09 µM). For the same compound, the “selectivity index (EC50/MIC)” value ([6]; RBC EC50 / MIC, S. aureus N315) was “(39)”, the MIC ([6]; Staphylococcus aureus, N315, read-out: Antimicrobial activity (MIC)) was 2 µg/mL (≈ 3.09 µM) and the “selectivity index (EC50/MIC)” value ([7]; RBC EC50 / MIC, S. aureus NCTC 10442) was “(39)”. For the same compound, the MIC ([7]; Staphylococcus aureus, NCTC10442, read-out: Antimicrobial activity (MIC)) was 2 µg/mL (≈ 3.09 µM), the “selectivity index (EC50/MIC)” value ([8]; RBC EC50 / MIC, S. aureus strain 85/2082) was “(39)” and the MIC ([8]; Staphylococcus aureus, 85/2082, read-out: Antimicrobial activity (MIC)) was 2 µg/mL (≈ 3.09 µM). For the same compound, the “selectivity index (EC50/MIC)” value ([9]; RBC EC50 / MIC, S. aureus strain WIS) was “(39)”, the MIC ([9]; Staphylococcus aureus, read-out: Antimicrobial activity (MIC)) was 2 µg/mL (≈ 3.09 µM) and the MIC [10, 25] was 2 µg/mL (≈ 3.09 µM). For the same compound, the “selectivity index (EC50/MIC)” value ([10]; RBC EC50 / MIC) was “(39)”, the MIC [11, 25] was 2 µg/mL (≈ 3.09 µM) and the “selectivity index (EC50/MIC)” value ([11]; RBC EC50 / MIC) was “(39)”. The MIC [12, 25] was 4 µg/mL (≈ 6.18 µM), the “selectivity index (EC50/MIC)” value ([12]; RBC EC50 / MIC) was “(19)” and the MIC ([13]; Enterococcus faecium, K3618, read-out: Antimicrobial activity (MIC)) was 2 µg/mL (≈ 3.09 µM). For the same compound, the “selectivity index (EC50/MIC)” value ([13]; RBC EC50 / MIC, E. faecium K36-18) was “(39)”, the MIC ([14]; Enterococcus faecium, TUH5022, read-out: Antimicrobial activity (MIC)) was 2 µg/mL (≈ 3.09 µM) and the “selectivity index (EC50/MIC)” value ([14]; RBC EC50 / MIC) was “(39)”. The MIC [15, 26] was 4 µg/mL (≈ 6.18 µM), the “selectivity index (EC50/MIC)” value ([15]; RBC EC50 / MIC) was “(19)” and the MIC [16, 26] was 4 µg/mL (≈ 6.18 µM). The “selectivity index (EC50/MIC)” value ([16]; RBC EC50 / MIC) was “(19)”, the MIC [17, 26] was 4 µg/mL (≈ 6.18 µM) and the “selectivity index (EC50/MIC)” value ([17]; RBC EC50 / MIC) was “(19)”. The MIC [18, 26] was 4 µg/mL (≈ 6.18 µM), the “selectivity index (EC50/MIC)” value ([18]; RBC EC50 / MIC) was “(19)” and the MIC [19, 26] was 4 µg/mL (≈ 6.18 µM). For the same compound, the “selectivity index (EC50/MIC)” value ([19]; RBC EC50 / MIC) was “(19)”, the MIC ([20]; Pseudomonas aeruginosa, read-out: Antimicrobial activity (MIC)) was 16 µg/mL (≈ 24.7 µM) and the “selectivity index (EC50/MIC)” value ([20]; RBC EC50 / MIC) was “(5)”. For the same compound, the MIC ([21]; Pseudomonas aeruginosa, K3473, read-out: Antimicrobial activity (MIC)) was 8 µg/mL (≈ 12.4 µM), the “selectivity index (EC50/MIC)” value ([21]; RBC EC50 / MIC) was “(10)” and the MIC ([22]; Pseudomonas aeruginosa, K4424, read-out: Antimicrobial activity (MIC)) was 16 µg/mL (≈ 24.7 µM). For the same compound, the “selectivity index (EC50/MIC)” value ([22]; RBC EC50 / MIC) was “(5)”, the IC50 [23] was 1 µg/mL (≈ 1.55 µM) and the MIC ([24]; Pseudomonas aeruginosa, read-out: MIC against P. aeruginosa) was 8 to 16 µg/mL (≈ 12.4 to 24.7 µM). For the same compound, the “fold improvement in antimicrobial activity compared to the analogous amine barbiturate 7(i)” value ([24]; multi-resistant clinical isolates) was “up to 4 fold”, the MIC ([24]; read-out: MIC values against S. aurues, E. faecium and E. coli) was 2 to 4 µg/mL (≈ 3.09 to 6.18 µM) and the MIC ([24]; read-out: MIC values against the Gram-negative multi-resistant clinical isolates of K. pneumoniae and A. baumanii) was 4 to 8 µg/mL (≈ 6.18 to 12.4 µM).
